# Measured values reported in ChEMBL document CHEMBL1150638, “An unusual sesquiterpene derivative from Ferula kuhistanica” (J Nat Prod, 2002).
# The source made the active and inactive calls. No cut-off for these calls is given here.
# How the values were obtained:
# Staphylococcus aureus [1] = assay: Antibacterial activity against methicillin-sensitive Staphylococcus aureus; assay type: functional, organism-based
# HCT-116 = assay: Cytotoxicity against human HCT116 cells after 2 days by MTT assay; assay type: functional, cell-based; conditions: HCT-116, 48 h
# Staphylococcus aureus [2] = assay: Antibacterial activity against methicillin-resistant Staphylococcus aureus; assay type: functional, organism-based
compound,measurement,setting,value
CC(=O)CC[C@@]1(C)CC[C@]2(C(C)C)O[C@@H](O)[C@H](OC(=O)c3ccc(O)cc3)[C@H]12 [KUHISTAFERONE],Activity,Staphylococcus aureus [1],inactive
same,IC50,HCT-116,181 µM
same,Activity,Staphylococcus aureus [2],inactive
